This note sets out measurements from patent US20260053834A1, “COVALENT MODIFIERS OF AKT1 AND USES THEREOF” (Terremoto Biosciences, Inc., priority 2023, published 2026).

For experiment [1], the system named is LAPC4 prostate cancer cells, which express the AKT1 E17K allele. The experiment is described as follows: Antiproliferative effects in LAPC4 cells (CellTiter Glo, 72 h). Format: cell-based. The note with it: Homo sapiens, LAPC4, 72 h, read-out: LAPC4 proliferation IC50: GeoMean IC50. Put shortly:
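IC50 values come from Hill-equation fitting of luminescence (cellular ATP) after 72 h compound exposure. Treated wells held 1,000 cells each, with compound delivered as DMSO dilutions. Culture medium was IMDM plus 12% FBS.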
A general note: ATP-based viability assays read luminescence as a measure of living cells.

For experiment [2], the target named is T1, AKT2 (Homo sapiens, UniProt P31751).
T1 construct: expressed in transfected cells; host or cells: HEK293
The experiment is described as follows: Live cell target engagement by NanoBRET competitive probe displacement, AKT2. Format: binding. Conditions: transfected HEK293 cells, 2 h at 37° C., read-out: AKT2 IC50: GeoMean IC50. On the technique in general: In BRET a luciferase serves as donor, and the signal depends on an acceptor being close.

For experiment [3], the target named is T2, AKT1 WT (Homo sapiens, UniProt P31749).
T2 construct: expressed in transfected cells; host or cells: HEK293
The experiment is described as follows: Live cell target engagement by NanoBRET competitive probe displacement, AKT1 WT. Format: binding. Conditions: transfected HEK293 cells, 2 h at 37° C., read-out: AKT1 WT IC50: GeoMean IC50.

The target of experiment [4] is T3, AKT1 E17K (Homo sapiens, UniProt P31749, E17K).
T3 construct: expressed in transfected cells; host or cells: HEK293
The experiment is described as follows: Live cell target engagement by NanoBRET competitive probe displacement, AKT1 E17K. Format: binding. The note with it: transfected HEK293 cells, 2 h at 37° C., read-out: AKT1 E17K IC50: GeoMean IC50.

T1 sequence (P31751 whole entry): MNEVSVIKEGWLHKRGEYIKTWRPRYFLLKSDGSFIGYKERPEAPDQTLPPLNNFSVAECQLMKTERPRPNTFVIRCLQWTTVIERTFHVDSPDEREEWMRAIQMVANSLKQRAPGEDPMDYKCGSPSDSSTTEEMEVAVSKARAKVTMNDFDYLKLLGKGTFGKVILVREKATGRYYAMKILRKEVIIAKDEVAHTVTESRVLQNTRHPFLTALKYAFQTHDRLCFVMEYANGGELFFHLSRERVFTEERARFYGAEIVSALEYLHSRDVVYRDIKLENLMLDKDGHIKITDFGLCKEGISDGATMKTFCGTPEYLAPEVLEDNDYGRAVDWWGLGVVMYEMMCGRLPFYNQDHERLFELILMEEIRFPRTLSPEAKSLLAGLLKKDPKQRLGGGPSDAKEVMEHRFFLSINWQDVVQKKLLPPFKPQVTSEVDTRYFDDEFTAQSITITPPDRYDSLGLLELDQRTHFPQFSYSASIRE
T3 sequence (P31749 whole entry E17K): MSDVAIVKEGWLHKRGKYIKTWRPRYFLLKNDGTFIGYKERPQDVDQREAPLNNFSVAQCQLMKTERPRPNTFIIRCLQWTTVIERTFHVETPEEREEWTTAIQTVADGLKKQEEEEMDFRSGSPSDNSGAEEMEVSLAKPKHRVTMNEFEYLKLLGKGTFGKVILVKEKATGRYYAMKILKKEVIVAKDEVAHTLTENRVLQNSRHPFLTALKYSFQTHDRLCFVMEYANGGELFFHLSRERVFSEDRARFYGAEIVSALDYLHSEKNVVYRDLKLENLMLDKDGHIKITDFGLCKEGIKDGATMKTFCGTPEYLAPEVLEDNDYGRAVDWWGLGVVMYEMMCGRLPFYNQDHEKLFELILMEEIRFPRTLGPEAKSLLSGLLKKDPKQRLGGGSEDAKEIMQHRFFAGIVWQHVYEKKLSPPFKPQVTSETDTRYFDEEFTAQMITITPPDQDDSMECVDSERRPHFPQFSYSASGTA
T2 sequence (P31749 whole entry): as the sequence (P31749 whole entry E17K) above, with K17E counted along it

In the case of `CN(C)Cc1cc(C(=O)N[C@H]2CCc3cc(-n4c(-c5cccnc5N)nc5ccc(-n6cccn6)nc54)ccc32)cc(C=O)c1O` [Example 192, N-[(1S)-5-[2-(2-aminopyridin-3-yl)-5-(pyrazol-1-yl)imidazo[4,5-b]pyridin-3-yl]-2,3-dihydro-1H-inden-1-yl]-3-[(dimethylamino)methyl]-5-formyl-4-hydroxybenzamide], the IC50 was ≥ 2000 nM in experiment [1], ≥ 2000 nM in experiment [2], 100 to 2000 nM in experiment [3] and 100 to 2000 nM in experiment [4].
`Nc1ncccc1-c1nc2ccc(-c3ncc(F)s3)nc2n1-c1ccc2c(c1)CC[C@@H]2NC(=O)c1cc(C=O)c(O)c(F)c1F` [Example 193, N-[(1S)-5-[2-(2-aminopyridin-3-yl)-5-(5-fluoro-1,3-thiazol-2-yl)imidazo[4,5-b]pyridin-3-yl]-2,3-dihydro-1H-inden-1-yl]-2,3-difluoro-5-formyl-4-hydroxybenzamide]: the IC50 in experiment [1], in experiment [2], in experiment [3] and in experiment [4] was 10 to 100 nM in each case.
`Nc1ncccc1-c1nc2ccc(-c3ncc[nH]3)nc2n1-c1ccc2c(c1)CC[C@@H]2NC(=O)c1ccc(O)c(C=O)c1` [Example 194, N-[(1S)-5-[2-(2-aminopyridin-3-yl)-5-(1H-imidazol-2-yl)imidazo[4,5-b]pyridin-3-yl]-2,3-dihydro-1H-inden-1-yl]-3-formyl-4-hydroxybenzamide]: the IC50 in experiment [1] fell in the range of 100 to 2000 nM; in experiment [2] it was 100 to 2000 nM; in experiment [3], 100 to 2000 nM; in experiment [4], 10 to 100 nM.
For the compound `Nc1ncccc1-c1nc2ccc(-n3cccn3)nc2n1-c1ccc2c(c1)CC(F)(F)[C@@H]2NC(=O)c1ccc(O)c(C=O)c1` [Example 195, (R)—N-(5-(2-(2-aminopyridin-3-yl)-5-(1H-pyrazol-1-yl)-3H-imidazo[4,5-b]pyridin-3-yl)-2,2-difluoro-2,3-dihydro-1H-inden-1-yl)-3-formyl-4-hydroxybenzamide], the IC50 lay within 10 to 100 nM in experiment [1], 100 to 2000 nM in experiment [2], 100 to 2000 nM in experiment [3] and 10 to 100 nM in experiment [4].
Consider `Nc1ncccc1-c1nc2c(Cl)cc(-n3cccn3)nc2n1-c1ccc2c(c1)CC[C@@H]2NC(=O)c1ccc(O)c(C=O)c1` [Example 196, (S)—N-(5-(2-(2-aminopyridin-3-yl)-7-chloro-5-(1H-pyrazol-1-yl)-3H-imidazo[4,5-b]pyridin-3-yl)-2,3-dihydro-1H-inden-1-yl)-3-formyl-4-hydroxybenzamide], for which the IC50 in experiment [1] was 100 to 2000 nM; in experiment [2], 100 to 2000 nM; in experiment [3], 10 to 100 nM; in experiment [4] it was 10 to 100 nM.
`CCc1cc(-n2cccn2)nc2c1nc(-c1cccnc1N)n2-c1ccc2c(c1)CC[C@@H]2NC(=O)c1ccc(O)c(C=O)c1` [Example 197, N-[(1S)-5-[2-(2-aminopyridin-3-yl)-7-ethyl-5-(pyrazol-1-yl)imidazo[4,5-b]pyridin-3-yl]-2,3-dihydro-1H-inden-1-yl]-3-formyl-4-hydroxybenzamide]: the IC50 in experiment [1] lay in the range of 100 to 2000 nM; in experiment [2] it was 10 to 100 nM; in experiment [3] it was 10 to 100 nM; in experiment [4], 10 to 100 nM.
Turning to `Nc1ncccc1-c1nc2c(-n3cccn3)cc(-n3cccn3)nc2n1-c1ccc2c(c1)CC[C@@H]2NC(=O)c1ccc(O)c(C=O)c1` [Example 198, N-[(1S)-5-[2-(2-aminopyridin-3-yl)-5,7-bis(pyrazol-1-yl)imidazo[4,5-b]pyridin-3-yl]-2,3-dihydro-1H-inden-1-yl]-3-formyl-4-hydroxybenzamide], the IC50 lay in the range of 100 to 2000 nM in experiment [1], 100 to 2000 nM in experiment [2], 10 to 100 nM in experiment [3] and 10 to 100 nM in experiment [4].
Turning to `Cc1cc(-n2ccc(F)n2)nc2c1nc(-c1cccnc1N)n2-c1ccc2c(c1)CC[C@@H]2NC(=O)c1cc(C=O)c(O)c(F)c1F` [Example 199, N-[(1S)-5-[2-(2-aminopyridin-3-yl)-5-(3-fluoropyrazol-1-yl)-7-methylimidazo[4,5-b]pyridin-3-yl]-2,3-dihydro-1H-inden-1-yl]-2,3-difluoro-5-formyl-4-hydroxybenzamide], the IC50 in experiment [1] is 100 to 2000 nM; in experiment [2], 100 to 2000 nM; in experiment [3], < 10 nM; in experiment [4], < 10 nM.
In the case of `COc1cc(-n2cccn2)nc2c1nc(-c1cccnc1N)n2-c1ccc2c(c1)CC[C@@H]2NC(=O)c1ccc(O)c(C=O)c1` [Example 200, N-[(1S)-5-[2-(2-aminopyridin-3-yl)-7-methoxy-5-(pyrazol-1-yl)imidazo[4,5-b]pyridin-3-yl]-2,3-dihydro-1H-inden-1-yl]-3-formyl-4-hydroxybenzamide], the IC50 in experiment [1] was 100 to 2000 nM; in experiment [2], 100 to 2000 nM; in experiment [3] it was 10 to 100 nM; in experiment [4], 10 to 100 nM.
With `C#Cc1cc(-n2cccn2)nc2c1nc(-c1cccnc1N)n2-c1ccc2c(c1)CC[C@@H]2NC(=O)c1ccc(O)c(C=O)c1` [Example 201, N-[(1S)-5-[2-(2-aminopyridin-3-yl)-7-ethynyl-5-(pyrazol-1-yl)imidazo[4,5-b]pyridin-3-yl]-2,3-dihydro-1H-inden-1-yl]-3-formyl-4-hydroxybenzamide], the IC50 was 100 to 2000 nM in experiment [1], 100 to 2000 nM in experiment [2], 100 to 2000 nM in experiment [3] and 10 to 100 nM in experiment [4].
Turning to `Cc1cc(-n2cccn2)nc2c1nc(-c1cccnc1N)n2-c1ccc2c(c1)CC[C@@H]2NC(=O)c1cc(C=O)c(O)cc1F` [Example 202, (S)—N-(5-(2-(2-aminopyridin-3-yl)-7-methyl-5-(1H-pyrazol-1-yl)-3H-imidazo[4,5-b]pyridin-3-yl)-2,3-dihydro-1H-inden-1-yl)-2-fluoro-5-formyl-4-hydroxybenzamide], the IC50 in experiment [1], in experiment [2], in experiment [3] and in experiment [4] was 10 to 100 nM throughout.
With `Cc1nnc(-c2ccc3nc(-c4cccnc4N)n(-c4ccc5c(c4)CC[C@@H]5NC(=O)c4ccc(O)c(C=O)c4)c3n2)s1` [Example 203, N-[(1S)-5-[2-(2-aminopyridin-3-yl)-5-(5-methyl-1,3,4-thiadiazol-2-yl)imidazo[4,5-b]pyridin-3-yl]-2,3-dihydro-1H-inden-1-yl]-3-formyl-4-hydroxybenzamide], the IC50 fell in the range of 100 to 2000 nM in experiment [1], 100 to 2000 nM in experiment [2], 10 to 100 nM in experiment [3] and 10 to 100 nM in experiment [4].
On to `[2H]C(=O)c1cc(C(=O)N[C@H]2CCc3cc(-n4c(-c5cccnc5N)nc5ccc(-n6cccn6)nc54)ccc32)c(F)c(F)c1O` [Example 204, (S)—N-(5-(2-(2-aminopyridin-3-yl)-5-(1H-pyrazol-1-yl)-3H-imidazo[4,5-b]pyridin-3-yl)-2,3-dihydro-1H-inden-1-yl)-2,3-difluoro-5-(formyl-d)-4-hydroxybenzamide], for which the IC50 was 10 to 100 nM in experiment [1], 10 to 100 nM in experiment [2], < 10 nM in experiment [3] and < 10 nM in experiment [4].
`Nc1ncccc1-c1nc2ccc(-n3cccn3)nc2n1-c1ccc2c(c1)CC[C@@H]2NC(=O)c1cc(C=O)c(O)cc1-n1cccn1` [Example 205, N-[(1S)-5-[2-(2-aminopyridin-3-yl)-5-(pyrazol-1-yl)imidazo[4,5-b]pyridin-3-yl]-2,3-dihydro-1H-inden-1-yl]-5-formyl-4-hydroxy-2-(pyrazol-1-yl)benzamide]: the IC50 in experiment [1] lay in the range of 100 to 2000 nM; in experiment [2], 100 to 2000 nM; in experiment [3] it was 10 to 100 nM; in experiment [4], 10 to 100 nM.
For the compound `Nc1ncccc1-c1nc2ccc(-n3ncc4c3COC4)nc2n1-c1ccc2c(c1)CC[C@@H]2NC(=O)c1ccc(O)c(C=O)c1` [Example 206, N-[(1S)-5-[2-(2-aminopyridin-3-yl)-5-{4H,6H-furo[3,4-c]pyrazol-1-yl}imidazo[4,5-b]pyridin-3-yl]-2,3-dihydro-1H-inden-1-yl]-3-formyl-4-hydroxybenzamide], the IC50 was 10 to 100 nM in experiment [1], 100 to 2000 nM in experiment [2], 10 to 100 nM in experiment [3] and < 10 nM in experiment [4].
For `Nc1ncccc1-c1nc2ccc(-n3cc4c(n3)COC4)nc2n1-c1ccc2c(c1)CC[C@@H]2NC(=O)c1ccc(O)c(C=O)c1` [Example 207, N-[(1S)-5-[2-(2-aminopyridin-3-yl)-5-{4H,6H-furo[3,4-c]pyrazol-2-yl}imidazo[4,5-b]pyridin-3-yl]-2,3-dihydro-1H-inden-1-yl]-3-formyl-4-hydroxybenzamide], the IC50 lay in the range of 100 to 2000 nM in experiment [1], 100 to 2000 nM in experiment [2], 10 to 100 nM in experiment [3] and 10 to 100 nM in experiment [4].
Consider `Nc1ncccc1-c1nc2ccc(-n3cccn3)nc2n1-c1ccc2c(c1)CC[C@@H]2N1Cc2cc(O)c(C=O)cc2C1=O` [Example 208, (S)-2-(5-(2-(2-aminopyridin-3-yl)-5-(1H-pyrazol-1-yl)-3H-imidazo[4,5-b]pyridin-3-yl)-2,3-dihydro-1H-inden-1-yl)-6-hydroxy-3-oxoisoindoline-5-carbaldehyde], for which the IC50 in experiment [1], in experiment [2], in experiment [3] and in experiment [4] was ≥ 2000 nM throughout.
As for `N#Cc1cc(-n2cccn2)nc2c1nc(-c1cccnc1N)n2-c1ccc2c(c1)CC[C@@H]2NC(=O)c1ccc(O)c(C=O)c1` [Example 209, N-[(1S)-5-[2-(2-aminopyridin-3-yl)-7-cyano-5-(pyrazol-1-yl)imidazo[4,5-b]pyridin-3-yl]-2,3-dihydro-1H-inden-1-yl]-3-formyl-4-hydroxybenzamide], the IC50 was in the range of 10 to 100 nM in experiment [1], 100 to 2000 nM in experiment [2], 10 to 100 nM in experiment [3] and 10 to 100 nM in experiment [4].
